Source: ChEMBL document CHEMBL5661967, “Antitumor activity of HKI-272, an orally active, irreversible inhibitor of the HER-2 tyrosine kinase” (Cancer Res, 2004)
Calls of active or inactive are those of the source. The rule behind the calls is not given here.

Legend:
BT-474 [1] = experiment: Cell cycle arrest in human BT-474 cells assessed as accumulation of cells at G2/M phase at 0.4 nM measured after 12 to 16 hrs by propidium iodide staining based flow cytometry (reference value: 11%); type: functional; conditions: time 12-16 hrs
SK-OV-3 [2] = experiment: Antitumor activity against human SK-OV-3 cells xenografted in athymic nude mouse assessed as tumor growth inhibition at 5 mg/kg, po administered daily for 20 days via gavage and measured on day 21 relative to control; type: functional; conditions: SK-OV-3, 504 h, time 21 day, read-out: TGI
[3] = Toxicity in human SK-OV-3 cells xenografted athymic nude mouse at 10 to 60 mg/kg, po administered daily via gavage for 20 days; type: organism-based; conditions: in vivo, 480 h, dose 10-60 mg/kg, time 20 day
[4] = target: T1, Receptor tyrosine-protein kinase erbB-2 (Homo sapiens, UniProt P04626); experiment: Inhibition of HER2 autophosphorylation in human BT-474 cells at 1 uM measured after 3 hrs by Western blot analysis relative to control; type: cell-based
BT-474 [5] = experiment: Cell cycle arrest in human BT-474 cells assessed as accumulation of cells at S phase at 0.4 nM measured after 12 to 16 hrs by propidium iodide staining based flow cytometry (reference value: 21%); type: functional; conditions: time 12-16 hrs
NIH3T3 = experiment: Antitumor activity against mouse 3T3 cells transfected with HER-2 oncogene implanted in po dosed athymic nude mouse assessed as tumor growth inhibition administered daily for 10 days via gavage and measured on day 21; type: functional, organism-based; conditions: dose 20-80 mg/kg, time 21.0 day
[6] = target: T1, Receptor tyrosine-protein kinase erbB-2; experiment: Binding affinity to HER2 in human […] cells at 1 uM measured after 15 mins by immunoprecipitation assay; type: cell-based; conditions: BT-474
[7] = target: Cyclin-dependent kinase 4/cyclin D1 (Homo sapiens, UniProt P11802); experiment: Inhibition of recombinant CDK4/cyclin D1 (unknown origin) using protein as substrate; type: protein-complex assay
[8] = target: Epidermal growth factor receptor (Homo sapiens, UniProt P00533); experiment: Inhibition of EGF-induced EGFR phosphorylation in human A-431 cells at 1 uM incubated for 3 hrs followed by compound washout and further incubated for 5 hrs by Western blot analysis relative to control; type: cell-based
BT-474 [9] = experiment: Cell cycle arrest in human BT-474 cells assessed as accumulation of cells at S phase at 0.2 nM measured after 12 to 16 hrs by propidium iodide staining based flow cytometry (reference value: 21%); type: functional; conditions: time 12-16 hrs
BT-474 [10] = experiment: Cell cycle arrest in human BT-474 cells assessed as accumulation of cells at G0-G1 phase at 0.2 nM measured after 12 to 16 hrs by propidium iodide staining based flow cytometry (reference value: 61%); type: functional; conditions: time 12-16 hrs
[11] = target: T1, Receptor tyrosine-protein kinase erbB-2; experiment: Irreversible inhibition of HER2 autophosphorylation in human BT-474 cells at 1 uM incubated for 3 hrs followed by compound washout and further incubated for 5 hrs by Western blot analysis relative to control; type: cell-based
BT-474 [12] = experiment: Antitumor activity against human BT-474 cells xenografted in athymic nude mouse assessed as tumor growth inhibition at 40 mg/kg, po administered daily for 20 days via gavage and measured on day 21 relative to control; type: functional; conditions: BT-474, 504 h, time 21 day, read-out: TGI
BT-474 [13] = experiment: Cell cycle arrest in human BT-474 cells assessed as reduction in accumulation of cells at S phase measured after 12 to 16 hrs by BrdUrd uptake assay; type: functional, cell-based
BT-474 [14] = experiment: Cell cycle arrest in human BT-474 cells assessed as accumulation of cells at G2/M phase at 1 nM measured after 12 to 16 hrs by propidium iodide staining based flow cytometry (reference value: 11%); type: functional; conditions: time 12-16 hrs
SK-OV-3 [15] = experiment: Antitumor activity against human SK-OV-3 cells xenografted in athymic nude mouse assessed as tumor growth inhibition at 60 mg/kg, po administered daily for 20 days via gavage and measured on day 21 relative to control; type: functional; conditions: SK-OV-3, 504 h, time 21 day, read-out: TGI

T1 sequence (P04626 whole entry): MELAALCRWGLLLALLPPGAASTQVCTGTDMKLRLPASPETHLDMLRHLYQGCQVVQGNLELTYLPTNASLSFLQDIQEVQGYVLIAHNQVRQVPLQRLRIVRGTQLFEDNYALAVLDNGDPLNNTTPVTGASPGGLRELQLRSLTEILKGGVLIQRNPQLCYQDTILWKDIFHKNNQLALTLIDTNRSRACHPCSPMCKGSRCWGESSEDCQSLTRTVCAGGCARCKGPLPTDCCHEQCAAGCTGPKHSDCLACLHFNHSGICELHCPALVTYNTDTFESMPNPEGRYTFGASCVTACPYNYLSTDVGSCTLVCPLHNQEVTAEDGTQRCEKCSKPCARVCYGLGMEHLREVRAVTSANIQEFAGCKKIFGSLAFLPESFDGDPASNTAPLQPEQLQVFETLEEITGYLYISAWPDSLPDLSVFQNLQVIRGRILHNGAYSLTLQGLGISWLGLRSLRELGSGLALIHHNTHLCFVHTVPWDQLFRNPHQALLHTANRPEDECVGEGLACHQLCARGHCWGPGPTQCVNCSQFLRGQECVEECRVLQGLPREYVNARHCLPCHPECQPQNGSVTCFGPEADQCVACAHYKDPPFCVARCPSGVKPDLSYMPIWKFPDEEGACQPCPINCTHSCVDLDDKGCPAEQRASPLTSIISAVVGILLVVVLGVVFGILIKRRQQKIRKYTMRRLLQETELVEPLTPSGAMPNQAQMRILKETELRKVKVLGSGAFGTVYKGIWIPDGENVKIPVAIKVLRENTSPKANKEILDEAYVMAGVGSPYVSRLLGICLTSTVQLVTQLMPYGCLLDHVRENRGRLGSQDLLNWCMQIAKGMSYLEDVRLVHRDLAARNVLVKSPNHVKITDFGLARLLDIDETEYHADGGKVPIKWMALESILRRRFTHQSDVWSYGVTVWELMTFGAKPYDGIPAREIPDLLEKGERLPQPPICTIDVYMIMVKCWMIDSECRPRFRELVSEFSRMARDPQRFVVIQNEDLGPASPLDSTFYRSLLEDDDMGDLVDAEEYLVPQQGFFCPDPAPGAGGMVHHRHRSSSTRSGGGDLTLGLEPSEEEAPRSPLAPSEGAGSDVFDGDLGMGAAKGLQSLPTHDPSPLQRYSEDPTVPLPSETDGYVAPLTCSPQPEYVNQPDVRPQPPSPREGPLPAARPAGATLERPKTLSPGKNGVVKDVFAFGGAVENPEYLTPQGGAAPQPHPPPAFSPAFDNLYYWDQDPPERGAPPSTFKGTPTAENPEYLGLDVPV
Chain of Cyclin-dependent kinase 4/cyclin D1 (P11802 whole entry): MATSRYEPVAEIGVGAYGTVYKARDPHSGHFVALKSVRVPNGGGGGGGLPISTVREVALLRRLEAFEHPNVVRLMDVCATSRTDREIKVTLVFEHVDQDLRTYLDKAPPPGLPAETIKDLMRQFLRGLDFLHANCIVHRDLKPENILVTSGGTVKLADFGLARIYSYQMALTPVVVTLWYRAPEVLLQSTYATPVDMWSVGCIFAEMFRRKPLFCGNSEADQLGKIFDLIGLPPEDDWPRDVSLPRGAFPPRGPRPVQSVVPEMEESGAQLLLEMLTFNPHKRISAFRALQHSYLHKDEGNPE
Chain of Cyclin-dependent kinase 4/cyclin D1 (P24385 whole entry, further chain): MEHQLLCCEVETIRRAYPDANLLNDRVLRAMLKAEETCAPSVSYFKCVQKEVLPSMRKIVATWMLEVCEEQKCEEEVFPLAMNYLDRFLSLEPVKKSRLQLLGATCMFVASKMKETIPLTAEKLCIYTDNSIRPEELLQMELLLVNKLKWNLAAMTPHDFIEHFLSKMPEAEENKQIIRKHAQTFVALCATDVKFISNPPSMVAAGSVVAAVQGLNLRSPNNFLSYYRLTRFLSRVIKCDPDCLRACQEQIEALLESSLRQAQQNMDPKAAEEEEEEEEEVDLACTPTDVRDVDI
Chain of Epidermal growth factor receptor (P00533 whole entry): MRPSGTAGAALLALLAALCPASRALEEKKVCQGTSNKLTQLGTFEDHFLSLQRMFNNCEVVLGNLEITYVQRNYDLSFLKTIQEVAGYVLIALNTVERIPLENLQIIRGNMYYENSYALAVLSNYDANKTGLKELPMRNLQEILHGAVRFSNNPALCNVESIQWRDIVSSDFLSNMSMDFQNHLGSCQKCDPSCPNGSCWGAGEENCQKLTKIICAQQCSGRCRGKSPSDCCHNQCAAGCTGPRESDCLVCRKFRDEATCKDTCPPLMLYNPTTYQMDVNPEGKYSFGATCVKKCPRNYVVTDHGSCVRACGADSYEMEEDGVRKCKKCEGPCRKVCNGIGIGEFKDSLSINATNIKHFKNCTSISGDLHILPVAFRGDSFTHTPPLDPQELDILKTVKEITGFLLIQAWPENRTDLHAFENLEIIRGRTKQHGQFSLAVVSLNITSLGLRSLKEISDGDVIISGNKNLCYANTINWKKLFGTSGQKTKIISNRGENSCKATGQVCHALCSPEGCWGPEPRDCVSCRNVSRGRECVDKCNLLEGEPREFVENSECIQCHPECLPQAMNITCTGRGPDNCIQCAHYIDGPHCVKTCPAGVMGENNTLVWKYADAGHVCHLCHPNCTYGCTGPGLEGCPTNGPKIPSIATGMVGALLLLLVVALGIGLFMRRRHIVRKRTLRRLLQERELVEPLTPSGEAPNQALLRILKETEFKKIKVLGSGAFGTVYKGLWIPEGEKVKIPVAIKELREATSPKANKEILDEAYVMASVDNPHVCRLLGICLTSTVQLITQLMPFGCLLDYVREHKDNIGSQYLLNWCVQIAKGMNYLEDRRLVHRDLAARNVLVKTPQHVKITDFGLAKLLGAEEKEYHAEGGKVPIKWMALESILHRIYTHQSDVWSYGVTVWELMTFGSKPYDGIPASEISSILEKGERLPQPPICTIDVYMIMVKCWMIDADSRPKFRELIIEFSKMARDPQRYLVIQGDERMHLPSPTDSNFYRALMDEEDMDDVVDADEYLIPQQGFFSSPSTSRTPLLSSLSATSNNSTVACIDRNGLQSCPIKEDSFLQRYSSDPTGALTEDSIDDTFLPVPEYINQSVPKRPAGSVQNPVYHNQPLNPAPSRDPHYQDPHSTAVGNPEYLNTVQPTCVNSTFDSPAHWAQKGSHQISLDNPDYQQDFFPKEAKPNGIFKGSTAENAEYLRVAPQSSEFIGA

- inhibition [4]: 98%
- Activity [6]: Active
- IC50 [7]: > 50000 nM
- inhibition [8]: 105%
- inhibition [11]: 97%
- IC50 (BT-474 [13]): 2 nM
Compound: COc1cc2ncc(C#N)c(Nc3ccc(OCc4ccccn4)c(Cl)c3)c2cc1NC(=O)/C=C/CN(C)C
- Activity (BT-474 [1]): 13%
- inhibition in vivo at 5 mg/kg (SK-OV-3 [2]): 31%
- Activity [3]: Non-Toxic
- Activity (BT-474 [5]): 12%
- TGI (NIH3T3): Dose-Dependent Effect
- Activity (BT-474 [9]): 16%
- Activity (BT-474 [10]): 63%
- inhibition in vivo at 40 mg/kg (BT-474 [12]): 88%
- Activity (BT-474 [14]): 14%
- inhibition in vivo at 60 mg/kg (SK-OV-3 [15]): 85%
